# Tests used:
# [1] = Antiplatelet aggregation activity in New Zealand white rabbit platelet rich plasma assessed as inhibition of ADP-induced aggregation treated for 3 mins before ADP challenge by turbidimetric method; assay type: functional; settings: Oryctolagus cuniculus, Newzealand white
# [2] = system: RAW264.7; experiment: Inhibition of nitric oxide production in LPS-stimulated mouse RAW264.7 cells at 100 uM by Griess reagent assay; assay type: functional
# [3] = Cytotoxicity against mouse RAW264.7 cells assessed as cell survival up to 100 uM by MTT assay; assay type: cell-based; settings: read-out: Activity
# [4] = system: RAW264.7; experiment: Inhibition of nitric oxide production in LPS-stimulated mouse RAW264.7 cells by Griess reagent assay; assay type: functional, cell-based
smiles,measurement,setting,value
CC(=O)Oc1ccccc1C(=O)O [ASPIRIN],IC50,[1],58.9 µM
C=C1CC[C@H]2[C@](C)(CO)[C@@H](O)CC[C@]2(C)[C@H]1CCC1=CC(=O)OC1,IC50,[1],58.9 µM
same,inhibition at 100 µM,[2],< 10%
same,viability,[3],90%
CC1(C)CCC[C@]2(C)[C@H]3CCC4=CC(=O)O[C@@H]4[C@@]3(C)C(=O)C[C@@H]12 [KRAVANHIN B],IC50,[1],> 200 µM
same,inhibition at 100 µM,[2],< 10%
same,IC50,[4],36.2 µM
same,viability,[3],90%
CC1(C)CCC[C@]2(C)[C@H]3CC=C(CCO)C(O)[C@@]3(C)C(=O)C[C@@H]12 (some centres undefined) [KRAVANHIN D],IC50,[1],> 200 µM
same,inhibition at 100 µM,[2],< 10%
same,viability,[3],90%
C=C1CC[C@H]2[C@](C)(CO)[C@@H](O)CC[C@]2(C)[C@H]1C/C=C1\CCOC1=O,IC50,[1],> 200 µM
same,inhibition at 100 µM,[2],< 10%
same,viability,[3],90%
C=C1CC[C@H]2C(C)(C)CCC[C@]2(C)[C@H]1C/C=C(/CO)[C@@H](O)CO,IC50,[1],> 200 µM
same,inhibition at 100 µM,[2],< 10%
same,viability,[3],90%
CC1(C)C(=O)CC[C@]2(C)[C@H]3CCC4=CC(=O)O[C@@H]4[C@@]3(C)C(=O)C[C@@H]12 [KRAVANHIN C],IC50,[1],> 200 µM
same,inhibition at 100 µM,[2],< 10%
same,viability,[3],90%
CC1(C)[C@@H](O)CC[C@]2(C)[C@H]3CCC4=CC(=O)O[C@@H]4[C@@]3(C)C(=O)C[C@@H]12 [KRAVANHIN A],IC50,[1],> 200 µM
same,inhibition at 100 µM,[2],< 10%
same,viability,[3],90%
CNC(=N)NCCC[C@H](N)C(=O)O [TILARGININE],IC50,[4],40.4 µM

# From ChEMBL document CHEMBL2331422, “Tetracyclic diterpenoids with isomerized isospongian skeleton and labdane diterpenoids from the fruits of Amomum kravanh” (J Nat Prod, 2013)
